Measurements as given in EP0821959A2 (priority 1996, dated 1998).
pIC50, pKi: −log10 of the molar value.

What was measured:
[1] = target: muscarinic cholinergic receptors; conditions: 3H-QNB binding assay
[2] = target: muscarinic cholinergic receptors; assay: 3H-oxotremorine-M binding study (oxotremorine-M versus N-methylscopolamine, Freedman et al.); conditions: inhibition of binding of 3H-oxotremorine-M; read-out: inhibition costant (Ki)
m4 receptors = m4 receptors (Homo sapiens, UniProt P08173); assay type: cell-based; conditions: CHO m4 cells treated with pertussis toxin
Sequence of m4 receptors (P08173 whole entry): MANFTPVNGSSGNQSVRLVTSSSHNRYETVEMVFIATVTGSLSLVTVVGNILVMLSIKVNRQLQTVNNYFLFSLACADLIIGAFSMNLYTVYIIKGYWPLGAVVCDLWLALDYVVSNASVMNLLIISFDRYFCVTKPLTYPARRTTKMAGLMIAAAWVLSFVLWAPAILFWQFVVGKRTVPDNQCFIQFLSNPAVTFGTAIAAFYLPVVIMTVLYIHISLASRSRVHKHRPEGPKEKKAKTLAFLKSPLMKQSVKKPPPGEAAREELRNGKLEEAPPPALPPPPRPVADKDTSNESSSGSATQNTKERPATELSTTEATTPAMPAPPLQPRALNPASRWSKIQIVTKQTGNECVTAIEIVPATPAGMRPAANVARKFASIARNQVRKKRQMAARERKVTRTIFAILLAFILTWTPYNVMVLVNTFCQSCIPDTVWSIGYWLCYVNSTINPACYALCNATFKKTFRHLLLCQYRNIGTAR

CCCCCCOc1nsnc1C1=CCCN(C)C1 [Xanomeline, 3-(4-hexyloxy-1,2,5-thiadiazol-3-yl)-1,2,5,6-tetrahydro-1-methylpyridine]
pIC50 [1]: > 3.00 | pKi [2]: 8.70 | formation of cAMP (m4 receptors): efficaciously and potently stimulated the formation of cAMP
